Common to all, as to assay: NCI anticancer screen, dose series, 48 h
In assay [1] the test system is 786-0 renal.
Assay [2] deals with HOP-62 NSCLC.
For assay [3], the system named is K-562 leukemia.
For assay [4], the system named is HCT-116 colon.
Assay [5] deals with SF-295 CNS.
Assay [6] has as its system HOP-92 NSCLC.
Assay [7] deals with RXF 393 renal.
Assay [8] has as its system SR leukemia.
Assay [9] concerns TK-10 renal.
The test system of assay [10] is NCI-H460 lung.

The structures appear in SMILES notation. Where “and” joins values, the source holds several entries; their conditions need not be identical. Identical values can stand only once.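 Briefly, cells in 96-well plates were exposed to five compound concentrations for 48 h, and endpoints were estimated by linear interpolation. GI50 = concentration required for 50% inhibition of growth. Definition used: TGI = concentration required for complete inhibition of growth.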 Where only a bound is given, the exact number is not on record here.

The source of these data is PubChem BioAssay (NCI).

Turning to `C=C1C[C@@H](O)[C@@H](Br)C(C)(C)[C@]12CCC(C)(Br)C(Cl)C2` (stereo not given in full), the GI50 in assay [1] is 17.9 µM; in assay [2] it was 15.4 µM; in assay [3] it was 19.2 µM; in assay [4], 19.3 µM; in assay [5], 17.9 µM; in assay [6], 20.3 µM. For the same molecule, the GI50 was 18.5 µM in assay [7], 18.9 µM in [8], 15.7 µM in assay [9] and 18 µM in [10]. Further, the TGI in [1] is > 50 µM and 33.7 µM; in assay [2], > 50 µM and 35.9 µM; in assay [3], > 50 µM and 42.4 µM; in assay [4] it was > 50 µM and 36.2 µM; in [5], > 50 µM and 34.9 µM; in assay [6], > 50 µM and 39.3 µM. Also, the TGI in assay [7] was > 50 µM and 37.2 µM; in [8], > 50 µM and 37.2 µM; in assay [9], > 50 µM and 29.8 µM; in assay [10] it was > 50 µM and 32.4 µM.
As to `CCCCCCCCCCCCNC(=O)N[C@H](C(=O)N[C@H]1/C=C/CCNC(=O)/C=C/[C@H](C)NC1=O)C(C)C`, the GI50 is 0.276 µM in assay [1]; 0.0538 µM in assay [2]; 0.456 µM in assay [3]; 0.0365 µM in assay [4]; 0.239 µM in [5]; 0.123 µM in [6]. For the same molecule, the GI50 was 0.0166 µM in assay [7], 0.0294 µM in [8], 0.0352 µM in [9] and 0.0416 µM in assay [10]. For the same molecule, the TGI in assay [1] was 5.39 µM; in [2], 0.178 µM; in [3], 15.1 µM; in assay [4], 0.163 µM; in assay [5] it was 1.45 µM; in [6], 0.353 µM. Also, the TGI in assay [7] stood at 0.0405 µM; in assay [8], 0.958 µM; in assay [9], 0.191 µM; in assay [10], 0.288 µM.
Take `CC12CCCC(C#N)(C1)OC2=O` (stereo not given): the TGI in assay [1], in assay [2], in [3], in assay [4], in [5] and in assay [6] was above 100 µM each time. In addition, the TGI in [7], in [8], in assay [9] and in [10] was above 100 µM each time.
For `C=C1C(=O)O[C@@H]2C[C@@H]1CC[C@]1(C)O[C@H]1CC/C(C)=C/CC[C@@]2(C)O`, the GI50 is 17 µM in assay [1]; 24.2 µM in assay [2]; 34.3 µM in assay [3]; 13.1 µM in [4]; 29.7 µM in assay [5]; 29.1 µM in assay [6]. The GI50 in assay [7] was 25.1 µM; in [8], 4.07 µM; in assay [9], 15.4 µM; in [10], 15.7 µM. Moreover, the TGI in assay [1] is 31.2 µM; in assay [2], 47.7 µM; in assay [3], above 100 µM; in [4], 25.8 µM; in assay [5] it was 92.5 µM; in assay [6] it was 82.7 µM. Besides, the TGI stood at 55.4 µM in [7], 15.7 µM in assay [8], 37.8 µM in [9] and 40.2 µM in [10].
In the case of `N.N.N.N.N.N#Cc1nn[n-]n1.[Cl-].[Co+3]`, the GI50 in assay [1], in [2], in [3], in assay [4], in assay [5] and in [6] was above 100 µM each time. The GI50 in assay [7], in assay [8], in [9] and in [10] was above 100 µM throughout. The TGI in assay [1], in [2], in [3], in assay [4], in assay [5] and in assay [6] was above 100 µM in each case. Also, the TGI in assay [7], in assay [8], in assay [9] and in assay [10] was above 100 µM throughout.
Consider `O=C1C(Cl)=C(Cl)C(=O)N1c1ccccc1Cl`, for which the TGI in assay [1] is above 100 µM; in [2], above 100 µM; in assay [3], above 81 µM; in assay [4], above 100 µM; in assay [5] it was above 100 µM; in [6], above 79.4 µM. For the same molecule, the TGI in assay [7] was above 100 µM; in assay [8] it was 69.7 µM; in assay [9], above 100 µM; in [10], above 100 µM.
For `CC(=O)OC1CC2C(C)(C)CCC[C@]2(C)C2=C1C(O)=C(C(C)C)C(=O)C2=O` (stereo not given in full), the GI50 in assay [1] is 0.813 µM; in [2], 2.13 µM; in [3], 0.919 µM; in assay [4], 0.499 µM; in [5], 0.644 µM; in [6], 0.123 µM. Further, the GI50 in assay [7] is 0.254 µM; in assay [8], 0.39 µM; in [9], 1.43 µM; in assay [10] it was 0.354 µM. For the same molecule, the TGI was 2.91 µM in assay [1]; 4.47 µM in assay [2]; above 100 µM in assay [3]; 1.99 µM in [4]; 2.57 µM in assay [5]; 0.547 µM in assay [6]. For the same molecule, the TGI in assay [7] worked out at 1.02 µM; in assay [8], 2.11 µM; in [9], 12.8 µM; in [10], 1.69 µM.
Consider `Cc1ccc(S(=O)(=O)OCC(=O)Nc2ccc(C(=O)O)c(O)c2)cc1`, for which the GI50 is 30.5 µM in assay [1]; 32.6 µM in assay [2]; 28.9 µM in assay [3]; 20.5 µM in assay [4]; 167 µM in [5]; 20 µM in assay [6]. In addition, the GI50 in assay [7] was 16.5 µM; in assay [8], 0.195 µM; in assay [9], 207 µM; in assay [10] it was 124 µM. Moreover, the TGI stood at 96.7 µM in assay [1]; 86 µM in assay [2]; 120 µM in assay [3]; 69 µM in assay [4]; 322 µM in assay [5]; 56.7 µM in [6]. The TGI in [7] stood at 85 µM; in assay [8] it was 7.08 µM; in assay [9] it was 464 µM; in [10], 292 µM.
Regarding `Nc1c(C(=O)c2ccc(C#CCN3CCOCC3)cc2)cnn1-c1ccc(F)cc1`, the GI50 in assay [1], in [2], in assay [3], in assay [4], in [5] and in [6] was above 25 µM in each case. In addition, the GI50 in assay [7], in assay [8], in [9] and in assay [10] was above 25 µM in each case. Besides, the TGI in [1], in assay [2], in assay [3], in assay [4], in assay [5] and in assay [6] was above 25 µM in each case. Also, the TGI in assay [7], in assay [8], in assay [9] and in assay [10] was above 25 µM throughout.
As to `O=C(CCC(=O)Nc1ccc(Cl)cc1)CC(=O)c1ccc2ccccc2c1`, the TGI in [1], in [2], in [3], in assay [4], in assay [5] and in [6] was above 100 µM in each case. The TGI in assay [7], in assay [8], in assay [9] and in assay [10] was above 100 µM throughout.
Regarding `O=C(Nc1ccn(C2CC(I)C(COC(c3ccccc3)(c3ccccc3)c3ccccc3)O2)c(=O)n1)c1ccccc1` (stereo not given), the TGI in assay [1] was determined as 15.5 µM; in assay [2], 21.2 µM; in assay [3], 21.5 µM; in assay [4], 12.2 µM; in [5] it was 21.5 µM; in [6], 13.2 µM. Also, the TGI in [7] turned out to be 13.2 µM; in assay [8], 2.15 µM; in assay [9] it was 21.5 µM; in assay [10], 14.1 µM.
With `CCNC(=O)Oc1ccc(/C(=C(\C)c2ccc(Cl)cc2)c2ccc(OCCN(CC)CC)cc2)cc1`, the GI50 in assay [1] was 1.76 µM; in assay [2] it was 4.35 µM; in assay [3], 2.18 µM; in assay [4], 2.04 µM; in [5], 1.85 µM; in [6], 3.16 µM. For the same molecule, the GI50 is 2.35 µM in [7], 2.55 µM in [8], 17 µM in [9] and 2.09 µM in [10]. The TGI in assay [1] stood at 3.42 µM; in assay [2] it was 16.4 µM; in assay [3], 5.37 µM; in [4] it was 4.86 µM; in [5] it was 4.12 µM; in assay [6] it was 12.6 µM. For the same molecule, the TGI was 9.84 µM in assay [7], 10.7 µM in assay [8], 31.8 µM in assay [9] and 4.16 µM in assay [10].
